Measured values as given in US20110251203A1, “USE OF PKC INHIBITORS IN DIABETIC COMPLICATIONS” (priority 2006, published 2011).

These compounds were tested on transgenic (mRen-2)27 rats (assay: Streptozotocin-diabetic Ren-2 rat model of diabetic complications). Conditions: administered i.v. at a dose of from 0.1 to 10 mg/kg.
Format: in vivo
Procedure: Ren-2 rats (e.g. as disclosed in D. J. Kelly et al, Kidney Int, Vol 54, 1998, p343-352)
The effect of Compound A, B or C, on diabetic complications is tested in transgenic (mRen-2)27 rats (also called “Ren-2 rats”), model that develops hypertension and many of the structural and functional characteristics of human diabetic nephropathy when diabetes is induced by streptozotocin, resulting in a progressive disease with many of the structural, functional and molecular characteristics of human diabetic nephropathy. The progression of this disease is associated with an increase in renal and cardiac growth factors and extra cellular matrix accumulation.
The effect of the compounds of the invention on diabetic nephropathy may be studied with the Ren-2 rats model, as disclosed in D. J. Kelly et al, Diabetes, Vol 52, February 2003, p512-518: Diabetes is induced by injection of streptozotocin, 55 mg/kg. All diabetic rats receive insulin (human isophane) 2 units/day to promote body weight and reduce mortality. The experimental period continues for 16 weeks in Ren-2 rats to study advanced renal and cardiac disease. Rats are randomised to the following groups:
Group 1: non-diabetic Ren-2, no drug Group 2: non-diabetic Ren2, Compound C Group 3: non-diabetic Ren-2, Compound A Group 4: diabetic Ren-2 Group 5: diabetic Ren-2, drug Compound C, dose 1 Group 6: diabetic Ren-2, drug Compound A, dose 1 Group 7: diabetic Ren-2, drug Compound C, dose 2 Group 8: diabetic Ren-2, drug Compound A, dose 2 N=20 per group (160 rats) […]
The spatial distribution and quantitation of the immunohistochemistry by image analysis provide specific information regarding the cell type and location of disease progression. […]
The right kidney is snap frozen in liquid nitrogen and used for molecular biological experiments. Tissue and cell specific changes in expression may be quantifyed using immunohistochemistry with quantitative image analysis and real time PCR (ABI Prism 7700, Perkin Elmer Biosystems, Foster City, Calif.) with TaqMan, Such a PCR analysis is a technique well known by the one skilled in the art.

Row | Structure (SMILES) | effect on the diabetic complications
1 | CN1CCN(c2nc(C3=C(c4c[nH]c5ccccc45)C(=O)NC3=O)c3ccccc3n2)CC1 [Compound A, 3-(1.H.-indol-3-yl)-4-[2-(4-methyl-piperazin-1-yl)-quinazolin-4-yl]-pyrrole-2,5-dione] | beneficial effect
2 | O=C1NC(=O)C(c2c[nH]c3ccccc23)=C1c1nc(N2CCNCC2)nc2ccccc12 [Compound B, 3-(1.H.-indol-3-yl)-4-[2-(piperazin-1-yl)-quinazolin-4-yl]-pyrrole-2,5-dione] | beneficial effect
3 | Cc1cccc2c(C3=C(c4nc(N5CCNC6(CC6)C5)cc5ccccc45)C(=O)NC3=O)c[nH]c12 [Compound C, 3-[3-(4,7-Diaza-spiro[2,5]oct-7-yl)-isoquinolin-1-yl]-4-(7-methyl-1H-indol-3-yl)-pyrrole-2,5-dione] | beneficial effect
